In publication PMC11189555, “Aryl amino acetamides prevent Plasmodium falciparum ring development via targeting the lipid-transfer protein PfSTART1” (Nature Communications, 2024):
Values joined by “and” are separate entries in the source; they are usually repeats but may differ in a detail not shown here. Identical values can stand only once. Like-named read-outs stand apart in the source and are kept apart here.

Tested on: SLI-WT parasites
Test: Growth inhibition assay (72 h, LDH activity)
Assay type: cell-based, Plasmodium falciparum
Conditions: for Growth inhibition, (1 - av / DMSO) x 100: Fig 2B source data, per biological replicate; for sample/DMSO: START(WT); for EC50: Plasmodium falciparum; for percent growth inhibition relative to DMSO control: START(WT) (SLI-WT)
Protocol: Parasite growth assays with inhibitory compounds were performed as per[11] and are fully described in the Supplementary Information.
Molecular biology and transfection of P. falciparum: Selection Linked Integration […]
To introduce the PfSTART1 mutations, the second half of the coding sequence of pfstart1 (PF3D7_0104200), was recodonised without introns to the bias of Saccharomyces cerevisiae containing either WT, N309K or N330K mutations, and synthesised as gBlock fragments (Integrated DNA Technologies). The first 819 bp of the 5′ native sequence of pfstart1 was amplified from gDNA, to form the 5’ homology block (5’ HB). The 3′ recodonised gBlock fragment comprising of the last 552 bp of either the WT, N309K or N330K pfstart1 to form the ‘recodon’ block (primers listed in Table S2). The 5’ HB and recodon products were sewn together by overlapping PCR to reconstitute the full coding sequence of pfstart1. These blocks (WT/N309K/N330K) were digested with BglII/PstI, and inserted into the parasite vector p-HA-2A-Neo-glmS
1. This plasmid contains an in -frame haemagglutinin (HA) epitope for protein identification and a P2A peptide (2A) to skip continuous peptide bond synthesis of a downstream neomycin resistance gene ( NeoR).
Parasites containing the transfected DNA were selected using 2.5 nM WR99210 (Jacobus). To select for parasites in which single crossover integration had occurred into the pfstart1 locus, parasites were treated with 400 μg/mL G418 (geniticin, Sigma Aldrich) for 14 days: only parasites that have integrated the construct into their genome expressed the neomycin resistance gene together with the PfSTART1 protein.
Parasite lines were cloned using limiting dilution. These clones were then tested on Western Blot (for correct HA-tagging and protein size), and correct integration and sequence were tested by PCR analysis: PCR on the gDNA was conducted using the primers START_5’UTR.F and START_Seq.R (Table S2). […]
Growth inhibition assays. Synchronised ring-stage parasites (0.3-0.6% parasitemia, 2% haematocrit) were grown for 72 h in a serial-dilution of the compound under […]
and compound 4. Note that M-833 was first purchased from MolPort (MolPort -002-267-916) then made in-house at WEHI: the differences observed in EC50s across experiments are attributed to the different batches of M -833. For some experiments, 0, 0.25 or 2.5 mM of glucosamine (GlcN) was also added. Experiments were set up in technical duplicates or triplicates. Following a freeze -thaw cycle, lactate dehydrogenase (LDH) activity was assessed as an indicator of parasite growt h 5. 30 μL of parasite culture was incubated for 30 min in the dark with 75 μL Malstat mixture (0.1 M Tris pH 9.0, 20 g/L lactic acid, pH 7.5, 0.2% Triton-X100, 0.5 g/L acetylpyridine adenine dinucleotide (APAD, Sigma), 200 μg/mL nitroblue tetrazolium (NBT; Sigma), 1 μg/mL phenozine ethosulfate (PES; Sigma)). Absorbance was then measured at 650 nm, transformed using the formula below, plotted against the logarithm of the concentrations, and a non-linear regression (log(inhibitor) vs. response, variable slope) was calculated using GraphPad Prism to assess the half-inhibitory […]
Growth inhibition % = (1 − average(sample)− average(uRBC)) ∗ 100 […]
The DMSO samples were also used to assess growth of parasite in the presence of 0.25 and 2.5 mM GlcN (normalised by DMSO in 0 mM GlcN).
Egress, invasion & recovery assay. To measure egress, invasion and follow up recovery in the presence of different compounds, we adapted the method developed in6, using Hyp1-Nluc parasites7. These parasites episomally express the exported PEXEL protein Hyp1 (PF3D7_0113300) tagged with a NanoLuc luciferase (NLuc) and were selected with 2.5 nM WR99210 (Jacobus). Highly synchronised schizonts were obtained using ML10 (LifeArc) and sorbitol synchronisation, and Percoll-purified (the culture was gently layered over 67% Percoll (Cytiva) in RPMI, and centrifuged for 15 min at 1500 g and the schizont layer was collected and washed). […]

## Cc1cc(Cl)c(S(=O)(=O)N2CCCC2)cc1OCC(=O)NC1CCCCC1 [M-833]
SLI-WT, M-833 conc 0.00152416 (unit not given)
  Growth inhibition, (1 - av / DMSO) x 100: 17.8235% and 9.909% and 33.7545%
SLI-WT, M-833 conc 0.00457247 (unit not given)
  Growth inhibition, (1 - av / DMSO) x 100: 32.5193% and 13.2196% and 48.23%
SLI-WT, M-833 conc 0.0137174 (unit not given)
  Growth inhibition, (1 - av / DMSO) x 100: 64.9814% and 33.9327% and 65.9574%
SLI-WT, M-833 conc 0.0411523 (unit not given)
  Growth inhibition, (1 - av / DMSO) x 100: 82.6478% and 70.7748% and 84.2144%
SLI-WT, M-833 conc 0.123457 (unit not given)
  Growth inhibition, (1 - av / DMSO) x 100: 87.5893% and 87.6138% and 93.5055%
SLI-WT, M-833 conc 0.37037 (unit not given)
  Growth inhibition, (1 - av / DMSO) x 100: 88.1748% and 91.0017% and 95.8283%
SLI-WT, M-833 conc 1.11111 (unit not given)
  Growth inhibition, (1 - av / DMSO) x 100: 89.8172% and 92.0512% and 95.1872%
SLI-WT, M-833 conc 3.33333 (unit not given)
  Growth inhibition, (1 - av / DMSO) x 100: 91.3453% and 92.3754% and 94.862%
SLI-WT, M-833 conc 10 (unit not given)
  Growth inhibition, (1 - av / DMSO) x 100: 91.9594% and 91.8274% and 95.2708%
M-833 0.000508053 uM, 0 mM GlcN, biological replicates 1-3
  sample/DMSO: 27.927 and 21.9727 and 25
M-833 0.000508053 uM, 0.25 mM GlcN, biological replicates 1-3
  sample/DMSO: 42.2036 and 30.1606 and 32.1527
M-833 0.000508053 uM, 2.5 mM GlcN, biological replicates 1-3
  sample/DMSO: 50.9566 and 35.9886 and 36.6839
M-833 0.00152416 uM, 0 mM GlcN, biological replicates 1-4
  sample/DMSO: 49.0407 and 28.0532 and 35.8147 and 28.6219
M-833 0.00152416 uM, 0.25 mM GlcN, biological replicates 1-4
  sample/DMSO: 60.3487 and 47.5652 and 43.8309
M-833 0.00152416 uM, 2.5 mM GlcN, biological replicates 1-4
  sample/DMSO: 64.731 and 51.7963 and 44.8107 and 40.64
M-833 0.00457247 uM, 0 mM GlcN, biological replicates 1-4
  sample/DMSO: 71.0997 and 42.5489 and 51.2149 and 44.2813
M-833 0.00457247 uM, 0.25 mM GlcN, biological replicates 1-4
  sample/DMSO: 74.8396 and 65.6157 and 57.2049
M-833 0.00457247 uM, 2.5 mM GlcN, biological replicates 1-4
  sample/DMSO: 78.1904 and 72.0515 and 57.0638 and 53.24
M-833 0.0137174 uM, 0 mM GlcN, biological replicates 1-4
  sample/DMSO: 83.6593 and 61.2338 and 74.7499 and 69.6413
M-833 0.0137174 uM, 0.25 mM GlcN, biological replicates 1-4
  sample/DMSO: 88.8842 and 81.3121 and 70.4954
M-833 0.0137174 uM, 2.5 mM GlcN, biological replicates 1-4
  sample/DMSO: 87.5985 and 84.0064 and 69.7195 and 63.44
M-833 0.0411523 uM, 0 mM GlcN, biological replicates 1-4
  sample/DMSO: 94.394 and 79.7192 and 91.2101 and 80.3728
M-833 0.0411523 uM, 0.25 mM GlcN, biological replicates 1-4
  sample/DMSO: 94.2399 and 92.19 and 82.349
M-833 0.0411523 uM, 2.5 mM GlcN, biological replicates 1-4
  sample/DMSO: 91.9649 and 89.5193 and 74.7012 and 67.08
M-833 0.123457 uM, 0 mM GlcN, biological replicates 1-4
  sample/DMSO: 97.6883 and 88.7403 and 94.7713 and 86.5433
M-833 0.123457 uM, 0.25 mM GlcN, biological replicates 1-4
  sample/DMSO: 95.7043 and 95.071 and 88.6476
M-833 0.123457 uM, 2.5 mM GlcN, biological replicates 1-4
  sample/DMSO: 92.7752 and 92.3191 and 78.8024 and 71.4
72 h, Fig 2B, SLI-WT, 72 h, n = 3, unit only in x-axis title, read-out: EC50 (95% confidence interval)
  EC50: 13.4 nM
Fig 3C, SLI-WT, 0 mM GlcN, n = 4, unit on plot axis, read-out: EC50 M-833 (95% confidence interval)
  EC50: 5.9 nM
Fig 3C, SLI-WT, 0.25 mM GlcN, n = 4, unit on plot axis, read-out: EC50 M-833 (95% confidence interval)
  EC50: 3.1 nM
Fig 3C, SLI-WT, 2.5 mM GlcN, n = 4, unit on plot axis, read-out: EC50 M-833 (95% confidence interval)
  EC50: 2.6 nM
SLI-WT, Fig 2B
  fold more sensitive compared to the parental 3D7 parasites: 7 fold
SLI-WT, PfSTART1 knock-down
  fold reduction of EC50 on addition of 2.5 mM GlcN: 2.3 fold
0 mM GlcN, M-833 0.37037 uM, biological replicates 1-4
  percent growth inhibition relative to DMSO control: 99.0454 and 90.3879 and 95.7242 and 88.5343
0 mM GlcN, M-833 1.11111 uM, biological replicates 1-4
  percent growth inhibition relative to DMSO control: 99.2981 and 91.8212 and 96.4269 and 89.5933
0 mM GlcN, M-833 3.33333 uM, biological replicates 1-4
  percent growth inhibition relative to DMSO control: 98.5962 and 92.1167 and 96.403 and 89.8334
0 mM GlcN, M-833 10 uM, biological replicates 1-4
  percent growth inhibition relative to DMSO control: 99.0547 and 92.0133 and 96.7127 and 88.7461
0.25 mM GlcN, M-833 0.37037 uM, biological replicates 1-4
  percent growth inhibition relative to DMSO control: 96.4435 and 95.9038 and 89.675
0.25 mM GlcN, M-833 1.11111 uM, biological replicates 1-4
  percent growth inhibition relative to DMSO control: 96.5272 and 97.1616 and 91.872
0.25 mM GlcN, M-833 3.33333 uM, biological replicates 1-4
  percent growth inhibition relative to DMSO control: 96.834 and 96.2182 and 91.3374
0.25 mM GlcN, M-833 10 uM, biological replicates 1-4
  percent growth inhibition relative to DMSO control: 97.0851 and 96.6856 and 92.1644
2.5 mM GlcN, M-833 0.37037 uM, biological replicates 1-4
  percent growth inhibition relative to DMSO control: 94.0131 and 93.8677 and 81.9097 and 71.68
2.5 mM GlcN, M-833 1.11111 uM, biological replicates 1-4
  percent growth inhibition relative to DMSO control: 94.8008 and 94.5862 and 84.2496 and 73.4
2.5 mM GlcN, M-833 3.33333 uM, biological replicates 1-4
  percent growth inhibition relative to DMSO control: 94.7333 and 94.0783 and 84.1867 and 73.32
2.5 mM GlcN, M-833 10 uM, biological replicates 1-4
  percent growth inhibition relative to DMSO control: 95.2735 and 94.4252 and 87.0927 and 74.36
